{"source": "patent US9849131B2", "about": "(AUTIFONY THERAPEUTICS LIMITED, priority 2009, dated 2017)", "key": {"[1]": {"tested_on": "Male CD-1 mice", "assay": "Psychostimulant (amphetamine)-induced hyperactivity in mice (Example 93)", "details": "mouse"}, "[2]": {"target": "T1, hKv3.2 (Homo sapiens, UniProt Q96PR1)", "T1 construct": "expressed in transfected cells; host or cells: CHO-K1", "T1 sequence (Q96PR1 1-638)": "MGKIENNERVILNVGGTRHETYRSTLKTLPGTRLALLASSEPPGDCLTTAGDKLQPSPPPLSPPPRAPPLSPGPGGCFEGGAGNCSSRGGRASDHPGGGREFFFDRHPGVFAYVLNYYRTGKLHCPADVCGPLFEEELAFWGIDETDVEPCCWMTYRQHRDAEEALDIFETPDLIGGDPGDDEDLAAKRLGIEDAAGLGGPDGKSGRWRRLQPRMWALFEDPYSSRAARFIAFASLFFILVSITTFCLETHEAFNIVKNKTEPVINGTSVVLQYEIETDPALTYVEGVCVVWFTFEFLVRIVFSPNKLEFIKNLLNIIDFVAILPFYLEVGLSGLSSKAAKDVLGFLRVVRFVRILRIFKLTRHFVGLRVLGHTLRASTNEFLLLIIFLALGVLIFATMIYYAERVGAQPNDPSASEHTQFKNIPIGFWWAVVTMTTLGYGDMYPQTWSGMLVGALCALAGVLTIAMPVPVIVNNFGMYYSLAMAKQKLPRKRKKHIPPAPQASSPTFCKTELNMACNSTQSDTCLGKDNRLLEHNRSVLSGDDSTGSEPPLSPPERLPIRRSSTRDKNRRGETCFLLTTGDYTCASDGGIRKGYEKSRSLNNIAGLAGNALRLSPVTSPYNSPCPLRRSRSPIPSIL", "assay": "IonWorks Quattro assay, secondary analysis of activation time constant (Tauact)", "format": "cell-based", "details": "for acts as positive or negative modulator of Kv3.1 and/or Kv3.2: classification from effect on Tauact; for effect on the value of Tauact compared to the vehicle control: vehicle DMSO 0.5%", "description": "A stable cell line expressing human Kv3.2 channels (hKv3.2) was created by transfecting Chinese Hamster Ovary (CHO)-K1 cells with a pCIH5-hKv3.2 vector. Cells were cultured in DMEM/F12 medium supplemented by 10% Foetal Bovine Serum, 1× non-essential amino acids (Invitrogen) and 500 ug/ml of Hygromycin-B (Invitrogen). Cells were grown and maintained at 37° C. in a humidified environment containing 5% CO2 in air.\nThe day of the experiment, cells were removed from the incubator and the culture medium removed. Cells were washed with 5 ml of Dulbecco's PBS (DPBS) calcium and magnesium free and detached by the addition of 3 ml Versene (Invitrogen, Italy) followed by a brief incubation at 37° C. for 5 minutes. The flask was tapped to dislodge cells and 10 ml of DPBS containing calcium and magnesium was added to prepare a cell suspension. The cell suspension was then placed into a 15 ml centrifuge tube and centrifuged for 2 min at 1200 rpm. After centrifugation, the supernatant was removed and the cell pellet re-suspended in 4 ml of DPBS containing calcium and magnesium using a 5 ml pipette to break […] up the pellet. Cell suspension volume was then corrected to give a cell concentration for the assay of approximately 3 million cells per ml.\nExperiments were conducted at room temperature using IonWorks Quattro™ planar array electrophysiology technology (Molecular Devices Corp.) with PatchPlate™ PPC. Stimulation protocols and data acquisition were carried out using a microcomputer (Dell Pentium 4). Planar electrode hole resistances (Rp) were determined by applying a 10 mV voltage step across each well. These measurements were performed before cell addition. […] Following this, amphotericin-B solution was added to the intracellular face of the electrode to achieve intracellular access. Cells were held at −70 mV. Leak subtraction was conducted in all experiments by applying 50 ms hyperpolarizing (10 mV) prepulses to evoke leak currents followed by a 20 ms period at the holding potential before test pulses. From the holding potential of −70 mV, a first test pulse to −15 mV was applied for 100 ms and following a further 100 ms at −70 mV, a second pulse to 40 mV was applied for 50 ms. Cells were then maintained for a further 100 ms at −100 mV and then a voltage ramp from −100 mV to 40 mV was applied over 200 ms. In all experiments, the test pulses protocol was performed in the absence (pre-read) and presence (post-read) of the test compound. Pre- and post-reads were separated by the compound addition followed by a 3 minute incubation.\nThe magnitude of the effect of a compound can be determined from the time constant (Tauact) obtained from a non-linear fit, using the equation given below, of the rise in Kv3.1 or Kv3.2 currents following the start of the depolarising voltage pulse. Y=(Y0−Ymax)*exp(−K*X)+Ymax\nWhere: • Y0 is the current value at the start of the depolarising voltage pulse; • Ymax is the plateau current;\nK is the rate constant, and Tauact is the activation time constant, which is the reciprocal of K."}, "[3]": {"tested_on": "fast-firing interneurons in the somatosensory cortex", "assay": "Recordings from fast-firing interneurons driven by high frequency current pulse trains (FIG. 2)", "format": "cell-based, mouse", "details": "1 microM; trains of depolarising current pulses at 100, 200, 300 Hz; n=6", "text": "Kv3.1 and Kv3.2 channels must activate and deactivate very rapidly in order to allow neurons to fire actions potentials at high frequency (Rudy and McBain, 2001, Trends in Neurosciences 24, 517-526). Slowing of activation will delay the onset of action potential repolarisation; slowing of deactivation will lead to hyperpolarising currents that reduce the excitability of the neuron and delay the time before the neuron can fire a further action potential. Together these two slowing effects will lead to a reduction rather than a facilitation of the neurons ability to fire at high frequencies. […] This latter effect can be observed from recordings made from “fast-firing” interneurons in the cortex of rat brain, using electrophysiological techniques, in vitro (FIG. 2).\nThe neurons are induced to fire at high frequencies by trains of high frequency depolarising current pulses at 100, 200, and 300 Hz. The ability of the neuron to fire an action potential on each pulse is determined. […] In the absence of drug (closed circles, n=9), the neurons maintained a spike probability of 1 up to 300 Hz."}, "[4]": {"tested_on": "high voltage-activated potassium currents in MNTB neurons (presumed to be mediated by Kv3.1 channels)", "assay": "Potassium currents recorded from MNTB neurons, in vitro (Example 91)", "format": "cell-based, mouse", "details": "TEA 1 mM; voltage steps to +40 mV", "description": "Male CBA/Ca mice (aged 12-16 days) were used in these experiments (in accordance with the UK Animals Scientific Procedures Act, 1986). Brain slices containing the medial nucleus of the trapezoid body (MNTB) were prepared as described previously (Brew and Forsythe, 2005).\nChemicals and reagents were purchased from Sigma, (Poole, UK) unless otherwise noted. EXAMPLE 19 was dissolved in DMSO and diluted in ACSF to the required concentration.\nRecordings from identified MNTB neurons were conducted as previously described (Brew and Forsythe, 2005). Slices was placed in a superfusion chamber on an inverted microscope stage and continuously perfused with gassed (95% O2-5% CO2) ACSF at a rate of 1 ml min^−1 at room temperature. Whole-cell recordings were made from visually identified MNTB neurons using an […] amplifier (Molecular Devices, Union City, Calif., USA). Patch solution comprised (in mM) potassium gluconate (97.5), KCl (32.5), Hepes (40), EGTA (5), MgCl2 (1), Na2 phosphocreatin (5), pH 7.2 with KOH. Pipettes had resistances of 3-5 MΩ and series resistances were 6-10 MΩ (compensated by 70%, 10 μs lag). Access resistance was frequently monitored and the recording discarded if increases were more than 2 MΩ. […]"}, "[5]": {"tested_on": "parvalbumin-positive interneurons in the somatosensory cortex", "assay": "Firing of parvalbumin-positive interneurons in somatosensory cortex slices, in vitro (Example 90)", "format": "cell-based, mouse", "details": "TEA 0.5 mM vs control slices; at least 1 hour incubation"}}}
{"smiles": "CC(N)Cc1ccccc1", "note": "(stereo not shown) [Amphetamine, amphetamine, reference compound]", "values": [{"measurement": "Total Distance Travelled (cm)", "setting": "[1]; amphetamine 2.0 mg/kg i.p. alone, 60 minutes, mean ± sem", "value": "16304 ± 3309", "unit": "cm"}, {"measurement": "effect on total distance travelled", "setting": "[1]; amphetamine alone 2 mg/kg i.p.", "value": "large and significant increase"}]}
{"smiles": "CC[C@@]1(C)NC(=O)N(c2ccc(Oc3ccc(C)c(OC)c3)nc2)C1=O", "note": "[Example 30, (5R)-5-ethyl-5-methyl-3-(6-{[4-methyl-3-(methyloxy)phenyl]oxy}-3-pyridinyl)-2,4-imidazolidinedione]", "values": [{"measurement": "acts as positive or negative modulator of Kv3.1 and/or Kv3.2", "setting": "[2]", "value": "positive modulators"}]}
{"smiles": "CC[C@H]1NC(=O)N(c2ccc(Oc3ccc(C#N)cc3C3CC3)nc2)C1=O", "note": "[Example 70, 3-cyclopropyl-4-({5-[(4R)-4-ethyl-2,5-dioxo-1-imidazolidinyl]-2-pyridinyl}oxy)benzonitrile]", "values": [{"measurement": "acts as positive or negative modulator of Kv3.1 and/or Kv3.2", "setting": "[2]", "value": "positive modulators"}]}
{"smiles": "CC[C@H]1NC(=O)N(c2ccc(Oc3ccc(C#N)cc3C(C)(C)C)nc2)C1=O", "note": "[Example 71, 3-(1,1-dimethylethyl)-4-({5-[(4R)-4-ethyl-2,5-dioxo-1-imidazolidinyl]-2-pyridinyl}oxy)benzonitrile]", "values": [{"measurement": "acts as positive or negative modulator of Kv3.1 and/or Kv3.2", "setting": "[2]", "value": "negative modulators"}, {"measurement": "effect on the value of Tauact compared to the vehicle control", "setting": "[2]; hKv3.2", "value": "markedly increase"}]}
{"smiles": "CC[C@H]1NC(=O)N(c2ccc(Oc3ccc(C#N)c(C4CC4)c3)nc2)C1=O", "note": "[Example 76, 2-cyclopropyl-4-({5-[(4R)-4-ethyl-2,5-dioxo-1-imidazolidinyl]-2-pyridinyl}oxy)benzonitrile]", "values": [{"measurement": "acts as positive or negative modulator of Kv3.1 and/or Kv3.2", "setting": "[2]", "value": "positive modulators"}, {"measurement": "Tauact mean", "setting": "[2]; hKv3.2, step to −15 mV, compound 3.1 μM (concentration giving ~0.3 nA current)", "value": 7.6, "unit": "ms"}]}
{"smiles": "CC[C@H]1NC(=O)N(c2ccc(Oc3ccc(C#N)c(C(C)C)c3)nc2)C1=O", "note": "[Example 77, 4-({5-[(4R)-4-ethyl-2,5-dioxo-1-imidazolidinyl]-2-pyridinyl}oxy)-2-(1-methylethyl)benzonitrile]", "values": [{"measurement": "acts as positive or negative modulator of Kv3.1 and/or Kv3.2", "setting": "[2]", "value": "positive modulators"}]}
{"smiles": "CCc1cc(Oc2ccc(N3C(=O)N[C@H](CC)C3=O)cn2)ccc1C#N", "note": "[Example 78]", "values": [{"measurement": "acts as positive or negative modulator of Kv3.1 and/or Kv3.2", "setting": "[2]", "value": "positive modulators"}]}
{"smiles": "CC[C@H]1NC(=O)N(c2ccc(Oc3ccc(C#N)c(OC(C)C)c3)nc2)C1=O", "note": "[Example 80, 4-({5-[(4R)-4-ethyl-2,5-dioxo-1-imidazolidinyl]-2-pyridinyl}oxy)-2-[(1-methylethyl)oxy]benzonitrile]", "values": [{"measurement": "acts as positive or negative modulator of Kv3.1 and/or Kv3.2", "setting": "[2]", "value": "positive modulators"}]}
{"smiles": "CC[C@H]1NC(=O)N(c2ccc(Oc3ccc(C#N)c(OC(F)(F)F)c3)nc2)C1=O", "note": "[Example 82, 4-({5-[(4R)-4-ethyl-2,5-dioxo-1-imidazolidinyl]-2-pyridinyl}oxy)-2-[(trifluoromethyl)oxy]benzonitrile]", "values": [{"measurement": "acts as positive or negative modulator of Kv3.1 and/or Kv3.2", "setting": "[2]", "value": "positive modulators"}]}
{"smiles": "CC[C@H]1NC(=O)N(c2ccc(Oc3cccc4c3C3(CC3)CO4)nc2)C1=O", "note": "[Example 87, (5R)-5-ethyl-3-[6-(spiro[1-benzofuran-3,1′-cyclopropan]-4-yloxy)-3-pyridinyl]-2,4-imidazolidinedione]", "values": [{"measurement": "acts as positive or negative modulator of Kv3.1 and/or Kv3.2", "setting": "[2]", "value": "negative modulators"}, {"measurement": "effect on the value of Tauact compared to the vehicle control", "setting": "[2]; hKv3.2", "value": "markedly increase"}, {"measurement": "ability of neurons to fire an action potential on each pulse (spike probability)", "setting": "[3]", "value": "unable to follow trains at the highest frequency"}]}
{"smiles": "CC1(C)NC(=O)N(c2ccc(Oc3cccc4c3C3(CC3)CO4)nc2)C1=O", "note": "[Example 88, 5,5-dimethyl-3-[6-(spiro[1-benzofuran-3,1′-cyclopropan]-4-yloxy)-3-pyridinyl]-2,4-imidazolidinedione]", "values": [{"measurement": "acts as positive or negative modulator of Kv3.1 and/or Kv3.2", "setting": "[2]", "value": "negative modulators"}, {"measurement": "effect on the value of Tauact compared to the vehicle control", "setting": "[2]; hKv3.2", "value": "markedly increase"}]}
{"smiles": "CC[N+](CC)(CC)CC", "note": "[TEA, tetraethylammonium, reference compound]", "values": [{"measurement": "amplitude of outward high voltage-activated potassium currents", "setting": "[4]", "value": "significantly reduced"}, {"measurement": "maximal frequency of action potential firing in response to step currents", "setting": "[5]", "value": "lower maximal frequency"}]}
